Converted amounts (≈) assume the structure as drawn.
Columns and labels:
[1] = test system: southern armyworm (Prodenia eridania, (Cram.)); experiment: Southern Armyworm Leaf Spray Test; format: in vivo; design: key to pesticidal activity rating, Armyworm: A: excellent control; B: partial control; C: no control
Protocol: Larvae of the southern armyworm (Prodenia eridania, (Cram.)), reared on Tendergreen bean plants at a temperature of 80°±5° F. and a relative humidity of 50±5 percent, constituted the test insects.
The test compounds were formulated by diluting the stock suspension with water to give a suspension containing 500 parts of test compound per million parts of final formulation. Potted Tendergreen bean plants of standard height and age were placed on a revolving turntable and sprayed with 100-110 milliliters of test compound formulation by use of a DeVilbiss spray gun set at 10 psig air pressure. This application, which lasted 25 seconds, was sufficient to wet plants to run-off. As a control, 100-110 milliliters of a water-acetone-emulsifier solution containing no test compound were also sprayed on infested plants. When dry, the paired leaves were separated and each one was placed in a 9 centimeter Petri dish lined with moistened filter paper. Five randomly selected larvae were introduced into each dish and the dishes were closed. The closed dishes were labeled and held at 80°-85° F. for 3 days. Although the larvae could easily consume the whole leaf within 24 hours, no more food was added. Larvae which were unable to move the length of the body, even upon stimulation by prodding, were considered dead. Percent mortality was recorded for various concentration levels.
(§1) In these tests the pesticidal activity of the compounds against aphid, mite, Southern Armyworm, Bean Beetle and House fly was rated as follows:
(§2) The LD50 values shown in the above Table II were determined by testing the compositions over an appropriate concentration range obtained by serial dilution of the stock suspension with water. The percent kill was plotted on log-probit graph paper versus parts per million concentration, and the LD50 read from an eye-fitted line drawn through the resultant points.

[2] = test system: Mexican bean beetle (Epilachna varivestis, Muls.); experiment: Mexican Bean Beetle Leaf Spray Test; format: in vivo; design: key to pesticidal activity rating, Bean beetle: A: excellent control; B: partial control; C: no control; conditions: leaf spray
Protocol: Fourth instar larvae of the Mexican bean beetle (Epilachna varivestis, Muls.), reared on Tendergreen bean plants at a temperature of 80°±5° F. and 50±5 percent relative humidity, were the test insects.
The test compounds were formulated by diluting the stock suspension with water to give a suspension containing 500 parts of test compound per million parts of final formulation. Potted Tendergreen bean plants of standard height and age were placed on a revolving turntable and sprayed with 100-110 milliliters of test compound formulation by use of a DeVilbiss spray gun set at 10 psig air pressure. This application, which lasted 25 seconds, was sufficient to wet plants to run-off. As a control, 100-110 milliliters of a water-acetone-emulsifier solution containing no test compound were also sprayed on infested plants. When dry, the paired leaves were separated and each was placed in a 9 centimeter Petri dish lined with moistened filter paper. Five randomly selected larvae were introduced into each dish, and the dishes were closed. The closed dishes were labeled and held at a temperature of 80°±5° F. for 3 days. Although the larvae could easily consume the leaf within 24 to 48 hours, no more food was added. Larvae which were unable to move the length of the body, even upon stimulation, were considered dead.
as §1, §2

[3] = test system: house flies (Musca domestica, L.); experiment: Fly Bait Test; format: in vivo; design: key to pesticidal activity rating, Housefly: A: excellent control; B: partial control; C: no control
Protocol: Four to 6 day old adult house flies (Musca domestica, L.), reared according to the specifications of the Chemical Specialities Manufacturing Association (Blue Book, McNair-Dorland Co., N.Y. 1954; pages 243-244, 261) under controlled conditions of 80°±5° F. and 50±5 percent relative humidity, were the test insects. The flies were immobilized by anesthetizing with carbon dioxide and twenty five immobilized individuals, males and females, were transferred to a cage consisting of a standard food strainer about 5 inches in diameter which was inverted over a wrapping-paper-covered surface. The test compounds were formulated by diluting the stock suspension with a 10 percent (by weight) sugar solution to give a suspension containing 500 parts of test compound per million parts of final formulation, by weight. Ten milliliters of the test formulation were added to a souffle cup containing a 1-inch square of an absorbent cotton pad. This bait cup was introduced and centered on the blotting paper under the food strainer prior to admitting the anesthetized flies. The caged flies were allowed to feed on the bait for 24 hours, at a temperature of 80°±5° F. and the relative humidity of 50±5 percent.
as §1, §2

[4] = test system: bean aphid (Aphis fabae Scop.); experiment: Bean Aphid Foliage Spray Test; format: in vivo; design: key to pesticidal activity rating, Aphid: A: excellent control; B: partial control; C: no control
Protocol: Adults and nymphal stages of the bean aphid (Aphis fabae Scop.) reared on potted dwarf nasturtium plants at 65°-70° F. and 50-70 percent relative humidity, constituted the test insects. For testing purposes, the number of aphids per pot was standardized to 100-150 by trimming plants containing excess aphids.
The test compounds were formulated by diluting the stock suspension with water to give a suspension containing 500 parts of test compound per million parts of final formulation.
The potted plants (one pot per compound tested) infested with 100-150 aphids, were placed on a revolving turntable and sprayed with 100-110 milliliters of test compound formulation by use of a DeVilbiss spray gun set at 40 psig. air pressure. This application, which lasted 25 seconds, was sufficient to wet the plants to run-off. As a control, 100-110 milliliters of a water-acetone-emulsifier solution containing no test compound were also sprayed on infested plants. After spraying, the pots were placed on their sides on a sheet of white standard mimeograph paper which had been previously ruled to facilitate counting. Temperature and humidity in the test room during the 24 hour holding period were 65°-70° F. and 50-70 percent, respectively. Aphids which fell onto the paper and were unable to remain standing after being uprighted were considered dead. Aphids remaining on the plants were observed closely for movement and those which were unable to move the length of the body upon stimulation by prodding were considered dead. Percent mortality was recorded for various concentration levels.
as §1, §2

[5] = Peroral toxicity to mammals (rat); format: in vivo; conditions: in vivo, po; rat, peroral, Table II; read-out: Rat P.O. LD50
Protocol: Certain of these compositions were also evaluated to determine their peroral toxicity to mammals. The animal selected for this experiment was the rat. The test results obtained are expressed in terms of the number of milligrams of composition per kilogram of weight of the animal required to achieve a mortality rate of 50 percent (LD50).

[6] = test system: two-spotted mite (Tetranychus urticae Koch); experiment: Mite Foliage Spray Test; format: in vivo; design: key to pesticidal activity rating, Mite: A: excellent control; B: partial control; C: no control
Protocol: (§3) Adults and nymphal stages of the two-spotted mite (Tetranychus urticae Koch), reared on Tendergreen bean plants at 80±5 percent relative humidity, were the test organisms. Infested leaves from a stock culture were placed on the primary leaves of two bean plants 6 to 8 inches in height, growing in a 21/2 inch clay pot. 150-200 Mites, a sufficient number for testing, transferred from the excised leaves to the fresh plants in a period of 24 hours. Following the 24 hour transfer period, the excised leaves were removed from the infested plants. The test compounds were formulated by diluting the stock suspension with water to give a suspension containing 500 parts of test compound per million parts of final formulation. The potted plants (one pot per compound) were placed on a revolving turntable and sprayed with 100-110 milliliters of test compound formulation by use of a DeVilbiss spray gun set at 40 psig. air pressure. This application, which lasted 25 seconds, was sufficient to wet the plants to run-off. As a control, 100-110 milliliters of a water solution containing acetone and emulsifier in the same concentrations as the test compound formulation, but containing no test compound, were also sprayed on infested plants. The sprayed plants were held at 80±5 percent relative humidity for 6 days, after which a mortality count of motile forms was made. Microscopic examination for motile forms was made on the leaves of the test plants. Any individual which was capable of locomotion upon prodding was considered living.
as §1, §2

mites = experiment: Systemic miticidal activity (soil drench of infested bean plants); format: in vivo, Tetranychus urticae Koch; conditions: Tetranychus urticae; systemic, soil drench, value in parentheses, Table II; read-out: Insect Toxicity, LD50, Mite, systemic activity
Protocol: as §3, §2
Systemic treatments were made by drenching 20 milliliters of the test compound formulation into the soil around the roots of bean plants growing in 21/2 inch clay pots. […]

CNC(=O)ON=C1CSCCS1 [drawing 3 --NHCH3, reference compound]
pesticidal activity rating, Armyworm ([1]; 500 parts per million, 3 days): A
LC50 ([1]; Spodoptera eridania, 72 h, Table II, read-out: Insect Toxicity, LD50, Armyworm): 53 µg/mL (≈ 257 µM)
LC50 ([2]; Epilachna varivestis, 72 h, Table II, read-out: Insect Toxicity, LD50, Mexican Bean beetle): 52 µg/mL (≈ 252 µM)
pesticidal activity rating, Bean beetle ([2]; 500 parts per million, 3 days): A
pesticidal activity rating, Housefly ([3]; 500 parts per million, 24 hours): A
LC50 ([3]; Musca domestica, 24 h, Table II, read-out: Insect Toxicity, LD50, House fly): 1 µg/mL (≈ 4.85 µM)
pesticidal activity rating, Aphid ([4]; 500 parts per million, 24 hour): A
LC50 ([4]; Aphis fabae, foliar, 24 h, Table II, read-out: Insect Toxicity, LD50, Aphid): 5 µg/mL (≈ 24.2 µM)
LD50 [5]: 15 mg/kg
pesticidal activity rating, Mite ([6]; 500 parts per million, 6 days): A
LC50 ([6]; Tetranychus urticae, foliar, Table II, read-out: Insect Toxicity, LD50, Mite): 6 µg/mL (≈ 29.1 µM)
LC50 (mites): 12 µg/mL (≈ 58.2 µM)

— patent publication US4111955A, “N-Trihalomethanesulfenyl carbamoyloximino di-sulfur heterocyclic compounds” (priority 1976, dated 1978)
